Data as given in ChEMBL document CHEMBL3046663, “Assessing the effects of three potential chemical repellents to prevent bird damage to corn seeds and seedlings” (Pest Manag Sci, 2013).
Activity calls are given as the source filed them. No cut-off for these calls is given here.

What was measured:
Zea mays [1] = test: Phytotoxicity against Zea mays (maize) seeds assessed as germination rate at 10 degC after 7 days by standard vigour method; format: organism-based; settings: in vivo, 168 h
Columba livia [2] = test: Bird repellent activity against Columba livia f. domestica fed with compound treated maize seeds assessed as feeding deterrence activity at 1 ml/kg by aviary food choice trials; format: functional, organism-based
Zea mays [3] = test: Phytotoxicity against Zea mays (maize) seeds assessed as germination rate at 25 degC after 5-6 days by standard vigour method; format: organism-based; settings: in vivo
Columba livia [4] = test: Bird repellent activity against Columba livia f. domestica assessed as decrease in damage of maize seedlings grown from compound-treated seeds at 0.085 ml/kg measured in the field at 2 to 16 days after germination during field trials; format: functional, organism-based
Columba livia [5] = test: Bird repellent activity against Columba livia f. domestica fed with compound treated maize seeds assessed as feeding deterrence activity at 0.085 ml/kg measured for 4 days by aviary food choice trials; format: functional, organism-based
Columba livia [6] = test: Bird repellent activity against Columba livia f. domestica assessed as decrease in damage of maize seedlings grown from compound-treated seeds at 0.085 ml/kg measured after 3 days exposure during aviary trials; format: functional, organism-based
Columba livia [7] = test: Bird repellent activity against Columba livia f. domestica fed with compound treated maize seeds assessed as feeding deterrence activity at 1.4 ml/kg measured for 4 days by aviary food choice trials; format: functional, organism-based
Columba livia [8] = test: Bird repellent activity against Columba livia f. domestica assessed as decrease in damage of maize seedlings grown from compound-treated seeds at 1.4 ml/kg measured after 3 days exposure during aviary trials; format: functional, organism-based
Columba livia [9] = test: Bird repellent activity against Columba livia f. domestica assessed as decrease in damage of maize seedlings grown from compound-treated seeds at 1.4 ml/kg measured in the field at 2 to 16 days after germination during field trials; format: functional, organism-based

SMILES | Activity (Zea mays [1]) | Activity (Columba livia [2]) | Activity (Zea mays [3]) | inhibition (Columba livia [4]) | Activity (Columba livia [5]) | inhibition (Columba livia [6]) | Activity (Columba livia [7]) | inhibition (Columba livia [8]) | inhibition (Columba livia [9])
O=C1c2ccccc2C(=O)c2ccccc21 [ANTHRAQUINONE] | Non-toxic | inactive | Non-toxic |  |  |  |  |  | 
COC(=O)c1ccccc1N [METHYL ANTHRANILATE] | Non-toxic |  | Non-toxic | inactive | Active | inactive |  |  | 
CC(C)=C1CC[C@@H](C)CC1=O [PULEGONE] | Non-toxic |  | Non-toxic |  |  |  | Active | inactive | inactive
